The source made the active and inactive calls. No cut-off for these calls is given here.
Key:
[1] = target: T1, Protein cereblon/Cyclin-K/Cyclin-dependent kinase 12 (Homo sapiens, UniProt O75909+Q9NYV4+Q96SW2); assay: Protac activity at human CRBN/CDK12/CycK in human Bel-7402 cells assessed as degradation of CDK12 at 3 uM measured after 24 hrs by Western blotting assay; assay type: cell-based
Target sequence in this assay (O75909 whole entry, looked up, the tested form may be a part): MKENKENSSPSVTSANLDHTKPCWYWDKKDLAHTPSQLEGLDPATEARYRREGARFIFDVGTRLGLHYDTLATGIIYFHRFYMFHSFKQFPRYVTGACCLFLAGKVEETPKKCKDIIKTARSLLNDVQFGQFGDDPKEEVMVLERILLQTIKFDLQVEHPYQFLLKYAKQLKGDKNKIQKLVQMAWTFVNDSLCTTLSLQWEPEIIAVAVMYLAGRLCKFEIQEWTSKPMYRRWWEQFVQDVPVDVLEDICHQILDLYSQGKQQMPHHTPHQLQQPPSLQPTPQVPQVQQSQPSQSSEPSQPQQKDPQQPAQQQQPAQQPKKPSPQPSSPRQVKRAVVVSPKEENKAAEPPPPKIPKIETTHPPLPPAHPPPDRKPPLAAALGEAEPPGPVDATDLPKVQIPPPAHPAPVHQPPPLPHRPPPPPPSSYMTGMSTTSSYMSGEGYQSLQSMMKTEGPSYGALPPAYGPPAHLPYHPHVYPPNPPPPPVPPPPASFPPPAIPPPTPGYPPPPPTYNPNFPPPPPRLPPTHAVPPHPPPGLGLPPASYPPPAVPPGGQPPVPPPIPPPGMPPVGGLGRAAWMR
Target sequence in this assay (Q96SW2 whole entry, looked up, the tested form may be a part): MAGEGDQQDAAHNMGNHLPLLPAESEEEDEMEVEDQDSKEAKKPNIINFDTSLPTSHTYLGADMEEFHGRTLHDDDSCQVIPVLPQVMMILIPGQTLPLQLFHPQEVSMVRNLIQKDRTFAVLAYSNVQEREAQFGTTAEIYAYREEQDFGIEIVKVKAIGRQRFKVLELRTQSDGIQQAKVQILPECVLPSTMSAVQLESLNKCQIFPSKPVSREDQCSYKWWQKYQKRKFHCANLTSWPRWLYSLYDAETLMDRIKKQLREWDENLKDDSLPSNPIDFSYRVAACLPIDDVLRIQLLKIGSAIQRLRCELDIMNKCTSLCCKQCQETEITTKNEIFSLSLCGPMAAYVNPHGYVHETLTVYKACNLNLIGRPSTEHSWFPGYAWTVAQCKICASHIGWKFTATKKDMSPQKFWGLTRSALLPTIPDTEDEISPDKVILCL
Target sequence in this assay (Q9NYV4 whole entry, looked up, the tested form may be a part): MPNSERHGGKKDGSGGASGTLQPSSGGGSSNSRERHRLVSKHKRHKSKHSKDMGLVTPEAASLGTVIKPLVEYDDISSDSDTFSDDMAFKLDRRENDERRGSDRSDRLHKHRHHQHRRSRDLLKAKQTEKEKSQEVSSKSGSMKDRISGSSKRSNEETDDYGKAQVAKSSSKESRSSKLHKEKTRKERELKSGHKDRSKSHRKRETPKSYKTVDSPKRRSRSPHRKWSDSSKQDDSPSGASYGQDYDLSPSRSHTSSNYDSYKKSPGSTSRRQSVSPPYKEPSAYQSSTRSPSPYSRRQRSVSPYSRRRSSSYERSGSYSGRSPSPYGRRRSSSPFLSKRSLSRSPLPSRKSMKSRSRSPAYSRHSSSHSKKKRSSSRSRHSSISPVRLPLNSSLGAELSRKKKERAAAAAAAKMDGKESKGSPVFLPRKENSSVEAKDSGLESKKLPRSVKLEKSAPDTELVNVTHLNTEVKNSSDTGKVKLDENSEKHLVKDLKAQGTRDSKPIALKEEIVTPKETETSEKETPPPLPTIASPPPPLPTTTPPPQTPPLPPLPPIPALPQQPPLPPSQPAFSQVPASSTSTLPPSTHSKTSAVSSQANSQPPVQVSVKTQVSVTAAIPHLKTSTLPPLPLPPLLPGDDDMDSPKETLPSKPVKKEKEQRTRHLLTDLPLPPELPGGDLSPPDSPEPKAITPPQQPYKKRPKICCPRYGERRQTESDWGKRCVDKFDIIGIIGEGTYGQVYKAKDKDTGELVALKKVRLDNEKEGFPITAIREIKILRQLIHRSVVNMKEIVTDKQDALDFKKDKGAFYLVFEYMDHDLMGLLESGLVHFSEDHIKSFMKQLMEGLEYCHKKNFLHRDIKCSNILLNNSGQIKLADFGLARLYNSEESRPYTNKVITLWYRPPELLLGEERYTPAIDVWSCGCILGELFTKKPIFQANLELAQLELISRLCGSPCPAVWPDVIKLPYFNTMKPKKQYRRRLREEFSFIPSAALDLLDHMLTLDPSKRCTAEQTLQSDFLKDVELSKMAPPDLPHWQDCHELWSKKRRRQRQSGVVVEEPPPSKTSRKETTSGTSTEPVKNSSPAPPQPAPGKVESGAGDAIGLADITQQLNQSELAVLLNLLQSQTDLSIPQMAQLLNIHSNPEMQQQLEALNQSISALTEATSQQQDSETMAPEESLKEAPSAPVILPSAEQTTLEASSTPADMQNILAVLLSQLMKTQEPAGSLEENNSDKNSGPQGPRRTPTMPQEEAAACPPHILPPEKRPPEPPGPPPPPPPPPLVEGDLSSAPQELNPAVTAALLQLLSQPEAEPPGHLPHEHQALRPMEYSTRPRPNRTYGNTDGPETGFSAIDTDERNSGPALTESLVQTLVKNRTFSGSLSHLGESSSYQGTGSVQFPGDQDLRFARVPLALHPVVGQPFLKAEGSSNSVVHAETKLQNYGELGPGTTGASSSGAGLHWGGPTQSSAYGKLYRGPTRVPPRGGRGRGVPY

[2] = target: CDK12/Cyclin K (Homo sapiens, UniProt Q9NYV4); assay: Inhibition of human CDK12 (696 to 1082 residues) /cyclinK (1 to 300 residues) using ac-YSPTSPpSYSPTSFpS-YSPTSPpSY-[PEG2]-RR-amid peptide as substrate in presence of ATP measured after 2 hrs by ADP-Glo kinase assay; assay type: protein-complex assay
[3] = target: T1, Protein cereblon/Cyclin-K/Cyclin-dependent kinase 12; assay: Protac activity at human CRBN/CDK12/CycK in human MDA-MB-231 cells assessed as degradation of CDK12 measured after 24 hrs by Western blotting assay; assay type: cell-based
[4] = target: T1, Protein cereblon/Cyclin-K/Cyclin-dependent kinase 12; assay: Protac activity at human CRBN/CDK12/CycK in human MDA-MB-231 cells assessed as degradation of CDK7 up to 30 uM measured after 24 hrs by Western blotting assay; assay type: cell-based; conditions: dose microM <=30, time 24.0 hrs
Target sequence in this assay (O75909 whole entry, looked up, the tested form may be a part): as the sequence (O75909 whole entry, looked up, the tested form may be a part) above
Target sequence in this assay (Q96SW2 whole entry, looked up, the tested form may be a part): as the sequence (Q96SW2 whole entry, looked up, the tested form may be a part) above
Target sequence in this assay (Q9NYV4 whole entry, looked up, the tested form may be a part): as the sequence (Q9NYV4 whole entry, looked up, the tested form may be a part) above

[5] = target: T1, Protein cereblon/Cyclin-K/Cyclin-dependent kinase 12; assay: Protac activity at human CRBN/CDK12/CycK in human Bel-7402 cells assessed as RNAP2 CTD Ser2 phosphorylation level at 0.1 to 30 uM measured after 24 hrs by Western blotting assay; assay type: cell-based; conditions: dose 0.1-30 µM
Target sequence in this assay (O75909 whole entry, looked up, the tested form may be a part): as the sequence (O75909 whole entry, looked up, the tested form may be a part) above
Target sequence in this assay (Q96SW2 whole entry, looked up, the tested form may be a part): as the sequence (Q96SW2 whole entry, looked up, the tested form may be a part) above
Target sequence in this assay (Q9NYV4 whole entry, looked up, the tested form may be a part): as the sequence (Q9NYV4 whole entry, looked up, the tested form may be a part) above

[6] = target: T1, Protein cereblon/Cyclin-K/Cyclin-dependent kinase 12; assay: Protac activity at human CRBN/CDK12/CycK in human MDA-MB-231 cells assessed as RNAP2 CTD Ser2 phosphorylation level at 0.1 to 30 uM measured after 24 hrs by Western blotting assay; assay type: cell-based; conditions: dose 0.1-30 µM
Target sequence in this assay (O75909 whole entry, looked up, the tested form may be a part): as the sequence (O75909 whole entry, looked up, the tested form may be a part) above
Target sequence in this assay (Q96SW2 whole entry, looked up, the tested form may be a part): as the sequence (Q96SW2 whole entry, looked up, the tested form may be a part) above
Target sequence in this assay (Q9NYV4 whole entry, looked up, the tested form may be a part): as the sequence (Q9NYV4 whole entry, looked up, the tested form may be a part) above

[7] = target: T1, Protein cereblon/Cyclin-K/Cyclin-dependent kinase 12; assay: Protac activity at human CRBN/CDK12/CycK in human Bel-7402 (CRBN/KO) cells assessed as degradation of CDK12 measured after 24 hrs by Western blotting assay; assay type: cell-based
Target sequence in this assay (O75909 whole entry, looked up, the tested form may be a part): as the sequence (O75909 whole entry, looked up, the tested form may be a part) above
Target sequence in this assay (Q96SW2 whole entry, looked up, the tested form may be a part): as the sequence (Q96SW2 whole entry, looked up, the tested form may be a part) above
Target sequence in this assay (Q9NYV4 whole entry, looked up, the tested form may be a part): as the sequence (Q9NYV4 whole entry, looked up, the tested form may be a part) above

[8] = target: T1, Protein cereblon/Cyclin-K/Cyclin-dependent kinase 12; assay: Protac activity at human CRBN/CDK12/CycK in human MDA-MB-231(CRBN/KO) cells assessed as degradation of CDK12 measured after 24 hrs by Western blotting assay; assay type: cell-based
Target sequence in this assay (O75909 whole entry, looked up, the tested form may be a part): as the sequence (O75909 whole entry, looked up, the tested form may be a part) above
Target sequence in this assay (Q96SW2 whole entry, looked up, the tested form may be a part): as the sequence (Q96SW2 whole entry, looked up, the tested form may be a part) above
Target sequence in this assay (Q9NYV4 whole entry, looked up, the tested form may be a part): as the sequence (Q9NYV4 whole entry, looked up, the tested form may be a part) above

[9] = target: T1, Protein cereblon/Cyclin-K/Cyclin-dependent kinase 12; assay: Protac activity at human CRBN/CDK12/CycK in human Bel-7402 cells assessed as downregulation of ATR measured after 6 hrs by RT-qPCR method; assay type: cell-based
[10] = tested on: MDA-MB-231; assay: Synergistic antiproliferative activity against human MDA-MB-231 cells in presence of 1 uM of Olaparib at 1 uM for 10 days by SRB staining based clone formation assay relative to control; assay type: functional; conditions: MDA-MB-231, 240 h, time 10 day
[11] = tested on: MDA-MB-231; assay: Synergistic antiproliferative activity against human MDA-MB-231 cells in presence of 3 uM of Olaparib at 1 uM measured after 10 days by SRB staining based clone formation assay relative to control; assay type: functional; conditions: MDA-MB-231, 240 h, time 10 day
[12] = tested on: MDA-MB-231; assay: Synergistic antiproliferative activity against human MDA-MB-231 cells in presence of 1 uM of Olaparib at 3 uM measured after 10 days by SRB staining based clone formation assay relative to control; assay type: functional; conditions: MDA-MB-231, 240 h, time 10 day
[13] = tested on: MDA-MB-231; assay: Synergistic antiproliferative activity against human MDA-MB-231 cells in presence of 3 uM of Olaparib at 3 uM measured after 10 days by SRB staining based clone formation assay relative to control; assay type: functional; conditions: MDA-MB-231, 240 h, time 10 day
[14] = tested on: MDA-MB-231; assay: Synergistic antiproliferative activity against human MDA-MB-231 cells in presence of 1 uM of Olaparib at 1 uM for 10 days by Chou-Talalay method; assay type: functional; conditions: time 10 day
[15] = tested on: MDA-MB-231; assay: Synergistic antiproliferative activity against human MDA-MB-231 cells in presence of 3 uM of Olaparib at 1 uM measured after 10 days by Chou-Talalay method; assay type: functional; conditions: time 10 day
[16] = tested on: MDA-MB-231; assay: Synergistic antiproliferative activity against human MDA-MB-231 cells in presence of 1 uM of Olaparib at 3 uM measured after 10 days by Chou-Talalay method; assay type: functional; conditions: time 10 day
[17] = tested on: MDA-MB-231; assay: Synergistic antiproliferative activity against human MDA-MB-231 cells in presence of 3 uM of Olaparib at 3 uM measured after 10 days by Chou-Talalay method; assay type: functional; conditions: time 10 day
[18] = target: T2, Protein cereblon/Cyclin-dependent kinase 13 (Homo sapiens) (UniProt Q14004+Q96SW2); assay: Protac activity at human CRBN/CDK13 in human Bel-7402 cells assessed as degradation of CDK13 at 0.1 to 30 uM measured after 24 hrs by Western blotting assay; assay type: cell-based; conditions: dose 0.1-30 µM
[19] = target: T2, Protein cereblon/Cyclin-dependent kinase 13 (Homo sapiens); assay: Protac activity at human CRBN/CDK13 in human MDA-MB-231 cells assessed as degradation of CDK13 at 0.1 to 30 uM measured after 24 hrs by Western blotting assay; assay type: cell-based; conditions: dose 0.1-30 µM
[20] = target: T1, Protein cereblon/Cyclin-K/Cyclin-dependent kinase 12; assay: Protac activity at human CRBN/CDK12/CycK in human MDA-MB-231 cells assessed as degradation of Cyclin H up to 30 uM measured after 24 hrs by Western blotting assay; assay type: cell-based; conditions: dose microM <=30, time 24.0 hrs
[21] = target: T1, Protein cereblon/Cyclin-K/Cyclin-dependent kinase 12; assay: Protac activity at human CRBN/CDK12/CycK in human Bel-7402 cells assessed as degradation of Cyclin T1 upto 30 uM measured after 24 hrs by Western blotting assay; assay type: cell-based; conditions: dose microM <=30, time 24.0 hrs
[22] = target: T1, Protein cereblon/Cyclin-K/Cyclin-dependent kinase 12; assay: Protac activity at human CRBN/CDK12/CycK in human Bel-7402 cells assessed as degradation of CK1alpha upto 30 uM measured after 24 hrs by Western blotting assay; assay type: cell-based; conditions: dose microM <=30, time 24.0 hrs
[23] = target: T1, Protein cereblon/Cyclin-K/Cyclin-dependent kinase 12; assay: Protac activity at human CRBN/CDK12/CycK in human MDA-MB-231 cells assessed as degradation of CK1alpha up to 30 uM measured after 24 hrs by Western blotting assay; assay type: cell-based; conditions: dose microM <=30, time 24.0 hrs
[24] = target: T1, Protein cereblon/Cyclin-K/Cyclin-dependent kinase 12; assay: Protac activity at human CRBN/CDK12/CycK in human Bel-7402 cells assessed as degradation of GSPT1 upto 30 uM measured after 24 hrs by Western blotting assay; assay type: cell-based; conditions: dose microM <=30, time 24.0 hrs
[25] = target: T1, Protein cereblon/Cyclin-K/Cyclin-dependent kinase 12; assay: Protac activity at human CRBN/CDK12/CycK in human MDA-MB-231 cells assessed as degradation of GSPT1 up to 30 uM measured after 24 hrs by Western blotting assay; assay type: cell-based; conditions: dose microM <=30, time 24.0 hrs
[26] = target: T1, Protein cereblon/Cyclin-K/Cyclin-dependent kinase 12; assay: Protac activity at human CRBN/CDK12/CycK in human MDA-MB-231 cells assessed as downregulation of Mcl-1 level upto 30 uM measured after 24 hrs by Western blotting assay; assay type: cell-based; conditions: dose microM <=30, time 24.0 hrs
[27] = target: T1, Protein cereblon/Cyclin-K/Cyclin-dependent kinase 12; assay: Protac activity at human CRBN/CDK12/CycK in human Bel-7402 cells assessed as degradation of CDK12 at 1 to 3 uM for 24 hrs in presence of MG132 by Western blotting assay; assay type: cell-based; conditions: dose 1-3 µM
[28] = target: T1, Protein cereblon/Cyclin-K/Cyclin-dependent kinase 12; assay: Protac activity at human CRBN/CDK12/CycK in human Bel-7402 cells assessed as CDK12 mRNA expression measured after 6 hrs by RT-qPCR method; assay type: cell-based
[29] = target: T1, Protein cereblon/Cyclin-K/Cyclin-dependent kinase 12; assay: Protac activity at human CRBN/CDK12/CycK in human MDA-MB-231 cells assessed as CDK12 mRNA expression measured after 6 hrs by RT-qPCR method; assay type: cell-based
[30] = target: T1, Protein cereblon/Cyclin-K/Cyclin-dependent kinase 12; assay: Protac activity at human CRBN/CDK12/CycK in human Bel-7402 cells assessed as CycK mRNA expression measured after 6 hrs by RT-qPCR method; assay type: cell-based
[31] = tested on: MDA-MB-231; assay: Antiproliferative activity against human MDA-MB-231 cells at 1 uM for 10 days by SRB staining based clone formation assay relative to control; assay type: functional; conditions: MDA-MB-231, 240 h, time 10 day

T2 sequence (Q14004 whole entry, looked up): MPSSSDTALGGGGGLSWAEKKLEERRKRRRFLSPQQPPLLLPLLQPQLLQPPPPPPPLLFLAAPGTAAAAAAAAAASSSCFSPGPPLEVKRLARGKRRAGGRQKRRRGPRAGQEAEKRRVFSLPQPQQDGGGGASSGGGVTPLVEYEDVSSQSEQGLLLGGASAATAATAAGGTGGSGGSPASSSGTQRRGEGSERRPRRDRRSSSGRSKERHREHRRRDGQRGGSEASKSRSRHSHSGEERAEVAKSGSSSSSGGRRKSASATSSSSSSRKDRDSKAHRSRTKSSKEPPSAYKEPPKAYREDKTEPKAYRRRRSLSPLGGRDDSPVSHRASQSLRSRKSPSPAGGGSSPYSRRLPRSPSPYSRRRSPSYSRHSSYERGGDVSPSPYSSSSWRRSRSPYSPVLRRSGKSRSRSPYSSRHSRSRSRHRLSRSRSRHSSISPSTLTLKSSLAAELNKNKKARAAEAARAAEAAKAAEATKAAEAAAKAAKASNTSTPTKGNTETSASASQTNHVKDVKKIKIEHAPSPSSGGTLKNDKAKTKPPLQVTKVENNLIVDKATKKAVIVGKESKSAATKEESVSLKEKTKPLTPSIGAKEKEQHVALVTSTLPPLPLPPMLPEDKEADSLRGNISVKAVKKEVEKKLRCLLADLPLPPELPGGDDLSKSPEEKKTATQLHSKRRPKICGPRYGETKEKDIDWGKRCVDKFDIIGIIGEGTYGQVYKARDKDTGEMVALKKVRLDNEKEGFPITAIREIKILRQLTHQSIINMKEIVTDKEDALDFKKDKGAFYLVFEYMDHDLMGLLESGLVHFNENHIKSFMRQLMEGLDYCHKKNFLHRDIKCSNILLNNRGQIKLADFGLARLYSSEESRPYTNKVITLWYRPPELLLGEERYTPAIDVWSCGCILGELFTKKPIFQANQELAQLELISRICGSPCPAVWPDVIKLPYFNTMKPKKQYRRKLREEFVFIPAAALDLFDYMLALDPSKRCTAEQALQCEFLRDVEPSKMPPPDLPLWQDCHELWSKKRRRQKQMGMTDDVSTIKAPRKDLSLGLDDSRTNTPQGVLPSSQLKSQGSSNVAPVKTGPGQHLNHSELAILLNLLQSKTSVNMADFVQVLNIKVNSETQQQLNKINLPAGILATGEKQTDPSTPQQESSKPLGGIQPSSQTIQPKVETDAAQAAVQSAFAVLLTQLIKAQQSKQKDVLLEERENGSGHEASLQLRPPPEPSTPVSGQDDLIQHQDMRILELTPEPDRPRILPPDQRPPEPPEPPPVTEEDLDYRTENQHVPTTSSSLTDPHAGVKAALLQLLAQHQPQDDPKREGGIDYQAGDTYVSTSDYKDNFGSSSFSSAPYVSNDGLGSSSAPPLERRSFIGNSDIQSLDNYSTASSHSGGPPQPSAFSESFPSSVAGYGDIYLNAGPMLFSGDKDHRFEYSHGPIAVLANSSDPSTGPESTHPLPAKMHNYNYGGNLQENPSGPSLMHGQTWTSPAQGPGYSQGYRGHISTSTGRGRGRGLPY
T2 sequence (Q96SW2 whole entry, looked up): as the sequence (Q96SW2 whole entry, looked up, the tested form may be a part) above

In the case of `CC(C)n1cnc2c(NCc3nc4cc(F)c(NCCCCCCCCNC(=O)COc5cccc6c5C(=O)N(C5CCC(=O)NC5=O)C6=O)cc4[nH]3)nc(N3CCOCC3)nc21` (stereo unspecified), the Activity [1] is reported as “Active”, the IC50 [2] is reported as 645 nM and the DC50 [3] is reported as 416 nM. For the same compound, the Activity [4] was “inactive”, the Activity [5] was “Active” and the Activity [6] was “Active”. The Activity [7] was “inactive”, the Activity [8] was “inactive” and the Activity [9] was “Active”. The inhibition at 1 µM [10] was 67.8%, the inhibition at 1 µM [11] was 99.6% and the inhibition at 3 µM [12] was 99.2%. The inhibition at 3 µM [13] was 99.8%, the CI [14] was 0.65 and the CI [15] was 0.75. For the same compound, the CI [16] was 0.29, the CI [17] was 0.62 and the Activity [18] was “Active”. The Activity [19] was “inactive”, the Activity [20] was “inactive” and the Activity [21] was “inactive”. The Activity [22] was “inactive”, the Activity [23] was “inactive” and the Activity [24] was “inactive”. The Activity [25] was “inactive”, the Activity [26] was “inactive” and the Activity [27] was “inactive”. The Activity [28] was “inactive”, the Activity [29] was “inactive” and the Activity [30] was “inactive”. It also gave an inhibition at 1 µM [31] of 1.05%.
